Test system: 299254-011-R-J1-PDC complex spheroid viability
Experiment: Anticancer human tumor 299254-011-R-J1-PDC patient-derived melanoma cell line growth inhibition [POLQ]
Conditions: for IC50: curve of first compound; for viability, T/C: stronger effect = lower value
Method: Multicellular complex tumor spheroid response to Polymerase (POL) inhibitors (novobiocin, ART-558, RP6685) in combination with a variety of drugs and investigational agents in selected tumor cell lines
The POL inhibitors (novobiocin, ART-558, and RP6685) were evaluated both individually and in combination with standard of care and investigational anticancer small molecules within a complex spheroid model of solid tumors. . Complex spheroids include a stromal component modeled by human endothelial cells (HUVEC) and fibroblasts modeled by human mesenchymal stem cells (MSCs). The concentration ranges selected for each drug and investigational agent were based upon clinically achievable concentrations if the clinical Cmax of the agent was known.
Compounds. The drugs and investigational agents: novobiocin (NSC847541), ART-558 (NSC835418), RP-6685 (NSC848927), peposertib (NSC802822), ceralasertib (NSC780249), elimusertib (NSC800525), camonsertib (NSC841442), AZD-1390 (NSC803789), olaparib (NSC753686), talazoparib (NSC767125), rucaparib (NSC756644), sotorasib (NSC818433), MRTX-1133 (NSC836407), SN-38 (NSC673596), topotecan (NSC609699), epotoside (NSC141540), doxorubicin (NSC123127), gemcitabine (NSC613327), 5-fluorouracil (NSC19893), paclitaxel (NSC125973), vemurafenib (NSC761431), MSA-2 (NSC828583), SN-011 (NSC837082), adavosertib (NSC754352), prexasertib (NSC758257), carboplatin (NSC241240) and oxaliplatin (NSC266046), were obtained from the National Cancer Institute (NCI) Developmental Therapeutics Program Chemical Repository (21). The FDA-approved anticancer drug set is available from the Developmental Therapeutics Program at https://dtp.cancer.gov/organization/dscb/obtaining/. […] The stock solutions were prepared in dimethyl sulfoxide (DMSO, Sigma-Aldrich, St. Louis, MO, cat. D2650), except for the platinum compounds which were prepared in saline (Quality Biological, Gaithersburg, MD, cat. 114-055-101), at 800-fold the tested concentration and stored at -70 degrees C prior to their use. All drugs and investigational agents were tested over a range starting from a high concentration at or near the clinical Cmax and decreasing in half-log increments. If the clinical Cmax for an agent had not been determined, the highest concentration tested was 10 microM, except for SN-38, which was tested at a high concentration of 1 microM.
Cell Culture. All cells were maintained in an incubator at 37 degrees C and 5% CO2 with 95% humidity. The PDC lines were cultured according to standard operating procedures established by the NCI PDMR (https://pdmr.cancer.gov). Table 3 of the manuscript, lists the cell lines along with the number of the three cell types plated to form the mct-spheroids and media for tumor cell growth. After thawing, all PDC lines, except 997537-175-T-J1-PDC and 415267-285-R-J2-PDC, were cultured in Matrigel-coated flasks prepared with a working solution of 1X Ham's F-12 nutrient mix, without supplementation (Thermo Fisher Scientific, cat. 11765054), 100 U/mL penicillin-streptomycin (Thermo Fisher Scientific, cat. 15140122), and 2.5% Matrigel (Corning Inc., Corning, NY, cat. 354248) for the first three passages. The two PDC lines 997537-175-T-J1-PDC and 415267-285-R-J2-PDC were cultured on uncoated flasks. The 857933-349-R-J2-PDC line was cultured in 6C/Colon 1B media containing advanced DMEM/F-12 (Thermo Fisher Scientific, cat. 12634028), 10 mM HEPES (Thermo Fisher Scientific, cat. 15630080), 1X GlutaMAX supplement (Thermo Fisher Scientific, cat. 35050061), 0.1 mg/mL primocin (InvivoGen, San Diego, CA, cat. ant-pm-2), 10% defined fetal bovine serum, heat inactivated (HyClone Laboratories Inc., Logan, UT, cat. SH30070.03HI), 50% L-WRN conditioned media (ATCC, cat. CRL-3276), 1.25 mM N-Acetyl-L-cysteine (Sigma-Aldrich, cat. A9165), 10 mM nicotinamide (Sigma-Aldrich, cat. N0636), 1X B-27 supplement (Thermo Fisher Scientific, cat. 17504044), 1X N-2 supplement (Thermo Fisher Scientific, cat. […]

[1] = second compound 0.0316 µM, first compound 0.0316 µM
[2] = second compound 0.0316 µM, first compound 0.1 µM
[3] = second compound 0.0316 µM, first compound 0.316 µM
[4] = second compound 0.0316 µM, first compound 1 µM
[5] = second compound 0.1 µM, first compound 0.0316 µM
[6] = second compound 0.1 µM, first compound 0.1 µM
[7] = second compound 0.1 µM, first compound 0.316 µM
[8] = second compound 0.1 µM, first compound 1 µM
[9] = second compound 0.316 µM, first compound 0.0316 µM
[10] = second compound 0.316 µM, first compound 0.1 µM
[11] = second compound 0.316 µM, first compound 0.316 µM
[12] = second compound 0.316 µM, first compound 1 µM
[13] = second compound 1 µM, first compound 0.0316 µM
[14] = second compound 1 µM, first compound 0.1 µM
[15] = second compound 1 µM, first compound 0.316 µM
[16] = second compound 1 µM, first compound 1 µM
[17] = second compound 3.16 µM, first compound 0.0316 µM
[18] = second compound 3.16 µM, first compound 0.1 µM
[19] = second compound 3.16 µM, first compound 0.316 µM
[20] = second compound 3.16 µM, first compound 1 µM
[21] = second compound 10 µM, first compound 0.0316 µM
[22] = second compound 10 µM, first compound 0.1 µM
[23] = second compound 10 µM, first compound 0.316 µM
[24] = second compound 10 µM, first compound 1 µM
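Note: spheroids exposed to drugs for one week before measurement.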
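Throughout, for viability, T/C: percent viability relative to DMSO vehicle control taken as 100%.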

With C=CC(=O)N1CCN(c2nc(=O)n(-c3c(C)ccnc3C(C)C)c3nc(-c4c(O)cccc4F)c(F)cc23)C(C)C1 (centres undefined) + Cc1cccc(N(C)C(=O)C2C(O)CCN2c2nc(C)cc(C(F)(F)F)c2C#N)c1 the IC50 (second compound 0.0316 µM) was > 10000 nM, the IC50 (second compound 0.1 µM) was > 10000 nM and the IC50 (second compound 0.316 µM) was > 10000 nM. For the same compound, the IC50 (second compound 1 µM) was > 10000 nM, the IC50 (second compound 3.16 µM) was > 10000 nM and the IC50 (second compound 10 µM) was > 10000 nM. For the same compound, the viability, T/C [1] was 88.6%, the viability, T/C [2] was 75.1% and the viability, T/C [3] was 72.8%. The viability, T/C [4] was 67.8%, the viability, T/C (second compound 0.0316 µM, first compound 3.16 µM) was 63.4% and the viability, T/C (second compound 0.0316 µM, first compound 10 µM) was 68.9%. It also gave a viability, T/C [5] of 85.2%, a viability, T/C [6] of 78.1% and a viability, T/C [7] of 64%. It also gave a viability, T/C [8] of 79.3%, a viability, T/C (second compound 0.1 µM, first compound 3.16 µM) of 69.3% and a viability, T/C (second compound 0.1 µM, first compound 10 µM) of 58.7%. The viability, T/C [9] was 99.5%, the viability, T/C [10] was 81.8% and the viability, T/C [11] was 88.3%. It also gave a viability, T/C [12] of 77.2%, a viability, T/C (second compound 0.316 µM, first compound 3.16 µM) of 74.3% and a viability, T/C (second compound 0.316 µM, first compound 10 µM) of 64.4%. The viability, T/C [13] was 88.4%, the viability, T/C [14] was 73.8% and the viability, T/C [15] was 63.5%. It also gave a viability, T/C [16] of 64.5%, a viability, T/C (second compound 1 µM, first compound 3.16 µM) of 82.2% and a viability, T/C (second compound 1 µM, first compound 10 µM) of 67.9%. The viability, T/C [17] was 84%, the viability, T/C [18] was 84.8% and the viability, T/C [19] was 66.4%. It also gave a viability, T/C [20] of 70.1%, a viability, T/C (second compound 3.16 µM, first compound 3.16 µM) of 66.1% and a viability, T/C (second compound 3.16 µM, first compound 10 µM) of 72.8%. The viability, T/C [21] was 90.5%, the viability, T/C [22] was 72.7% and the viability, T/C [23] was 56.4%. For the same compound, the viability, T/C [24] was 74%, the viability, T/C (second compound 10 µM, first compound 3.16 µM) was 74.9% and the viability, T/C (second compound 10 µM, first compound 10 µM) was 75.2%.
For COc1cccc(OCCCN)c1-c1cc(Nc2cnc(C#N)cn2)n[nH]1 + Cc1cccc(N(C)C(=O)C2C(O)CCN2c2nc(C)cc(C(F)(F)F)c2C#N)c1, the IC50 (second compound 0.0316 µM) was 188 nM, the IC50 (second compound 0.1 µM) was 136 nM and the IC50 (second compound 0.316 µM) was 95.4 nM. It also gave an IC50 (second compound 1 µM) of 207 nM, an IC50 (second compound 3.16 µM) of 105 nM and an IC50 (second compound 10 µM) of 112 nM. The viability, T/C (second compound 0.0316 µM, first compound 0.00316 µM) was 99.2%, the viability, T/C (second compound 0.0316 µM, first compound 0.01 µM) was 108% and the viability, T/C [1] was 71.2%. For the same compound, the viability, T/C [2] was 64.1%, the viability, T/C [3] was 39.6% and the viability, T/C [4] was 42%. The viability, T/C (second compound 0.1 µM, first compound 0.00316 µM) was 92.7%, the viability, T/C (second compound 0.1 µM, first compound 0.01 µM) was 104% and the viability, T/C [5] was 75.6%. The viability, T/C [6] was 53.7%, the viability, T/C [7] was 49% and the viability, T/C [8] was 38.2%. The viability, T/C (second compound 0.316 µM, first compound 0.00316 µM) was 100%, the viability, T/C (second compound 0.316 µM, first compound 0.01 µM) was 106% and the viability, T/C [9] was 74.7%. The viability, T/C [10] was 52%, the viability, T/C [11] was 49.2% and the viability, T/C [12] was 45.6%. The viability, T/C (second compound 1 µM, first compound 0.00316 µM) was 90.6%, the viability, T/C (second compound 1 µM, first compound 0.01 µM) was 103% and the viability, T/C [13] was 71.1%. For the same compound, the viability, T/C [14] was 65.9%, the viability, T/C [15] was 40.6% and the viability, T/C [16] was 38.9%. The viability, T/C (second compound 3.16 µM, first compound 0.00316 µM) was 120%, the viability, T/C (second compound 3.16 µM, first compound 0.01 µM) was 107% and the viability, T/C [17] was 72.3%. The viability, T/C [18] was 52.2%, the viability, T/C [19] was 41% and the viability, T/C [20] was 33.9%. It also gave a viability, T/C (second compound 10 µM, first compound 0.00316 µM) of 103%, a viability, T/C (second compound 10 µM, first compound 0.01 µM) of 85.1% and a viability, T/C [21] of 64.8%. The viability, T/C [22] was 54.1%, the viability, T/C [23] was 37.8% and the viability, T/C [24] was 39.8%.
